Measurements reported in patent publication US20150105252A1, “SUBSTITUTED PYRAZOLES AS HERBICIDES” (E I DU PONT DE NEMOURS AND COMPANY, priority 2013, published 2015).

Legend:
pigweed = assay: Test C postemergence; assay type: in vivo, Amaranthus retroflexus; conditions: postemergence; for Pigweed plant response rating: 62 g ai/ha, scale 0 to 100
Summary of the method: (§1)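 Visual rating, 0–100 scale (0 no effect, 100 complete control), vs untreated controls after 13–15 d greenhouse. Pre: seeds in loam/sand, treated at sowing. Post: plants in peat-based mix, 1- to 4-leaf (2–18 cm). Solvent + surfactant formulation, non-phytotoxic.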

morningglory [1] = assay: Test A preemergence; assay type: in vivo, Ipomoea spp.; conditions: preemergence; for Morningglory plant response rating (0 to 100 scale): 125 g ai/ha, visual injury approx. 10 days after treatment; for Morningglory plant response rating: 500 g ai/ha, visual injury after approx. 10 days, 0 to 100 scale (0 no effect, 100 complete control)
Summary of the method: (§2)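 Pre- and postemergence greenhouse test; loam+sand; cpd in non-phytotox. solvent/surfactant; post at 1–2 leaf, 2–10 cm; visual score ~10 d, 0 = none, 100 = complete control.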

corn [2] = assay: Test A preemergence; assay type: in vivo, Zea mays; conditions: preemergence; for Corn plant response rating (0 to 100 scale): 125 g ai/ha, visual injury approx. 10 days after treatment; for Corn plant response rating: 500 g ai/ha, visual injury after approx. 10 days, 0 to 100 scale (0 no effect, 100 complete control)
Summary of the method: as §2

barnyardgrass = assay: Test B flood; assay type: in vivo, Echinochloa crus-galli; conditions: 250 g ai/ha, visual rating on 0 to 100 scale (0 no effect, 100 complete control), 13 to 15 days
Summary of the method: (§3)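 2-leaf plants; pots flooded 3 cm over soil; compound added to paddy water, depth kept constant. Greenhouse 13–15 d. Visual rating vs controls, 0–100 scale (100 = complete control); dash = no result.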

ducksalad = assay: Test B flood; assay type: in vivo, Heteranthera limosa; conditions: 250 g ai/ha, visual rating on 0 to 100 scale (0 no effect, 100 complete control), 13 to 15 days
Summary of the method: as §3

crabgrass, large = assay: Test A preemergence; assay type: in vivo, Digitaria sanguinalis; conditions: preemergence; for Crabgrass, Large plant response rating (0 to 100 scale): 125 g ai/ha, visual injury approx. 10 days after treatment; for Crabgrass, Large plant response rating: 500 g ai/ha, visual injury after approx. 10 days, 0 to 100 scale (0 no effect, 100 complete control)
Summary of the method: as §2

ryegrass, Italian = assay: Test C preemergence; assay type: in vivo, Lolium multiflorum; conditions: preemergence; for Plant response rating, Ryegrass, Italian: 125 g ai/ha, scale 0 to 100, 0 = no effect, 100 = complete control
Summary of the method: as §1

ragweed = assay: Test C postemergence; assay type: in vivo, Ambrosia elation; conditions: postemergence
Summary of the method: as §1

sedge, umbrella = assay: Test B flood; assay type: in vivo, Cyperus difformis; conditions: 250 g ai/ha, visual rating on 0 to 100 scale (0 no effect, 100 complete control), 13 to 15 days
Summary of the method: as §3

waterhemp = assay: Test C postemergence; assay type: in vivo, Amaranthus rudis; conditions: postemergence; for Plant response rating, Waterhemp: 250 g ai/ha, scale 0 to 100 (0 no effect, 100 complete control); for Waterhemp plant response rating: scale 0 to 100
Summary of the method: as §1

galium = assay: Test C postemergence; assay type: in vivo, Galium aparine; conditions: for Plant response rating (scale of 0 to 100 where 0 is no effect and 100 is complete control), Galium: Postemergence, 31 g ai/ha, visually evaluated after 13 to 15 days; for Galium plant response rating / Plant response rating, Galium: postemergence; for Galium plant response rating: 62 g ai/ha, scale 0 to 100
Summary of the method: as §1

corn [3] = assay: Test C postemergence; assay type: in vivo, Zea mays; conditions: for Plant response rating (scale of 0 to 100 where 0 is no effect and 100 is complete control), Corn: Postemergence, 31 g ai/ha, visually evaluated after 13 to 15 days; for Corn plant response rating / Plant response rating, Corn: postemergence; for Corn plant response rating: 62 g ai/ha, scale 0 to 100
Summary of the method: as §1

velvetleaf = assay: Test A preemergence; assay type: in vivo, Abutilon theophrasti; conditions: preemergence; for Velvetleaf plant response rating (0 to 100 scale): 125 g ai/ha, visual injury approx. 10 days after treatment; for Velvetleaf plant response rating: 500 g ai/ha, visual injury after approx. 10 days, 0 to 100 scale (0 no effect, 100 complete control)
Summary of the method: as §2

morningglory [4] = assay: Test C postemergence; assay type: in vivo, Ipomoea coccinea; conditions: for Plant response rating (scale of 0 to 100 where 0 is no effect and 100 is complete control), Morningglory: Postemergence, 31 g ai/ha, visually evaluated after 13 to 15 days; for Morningglory plant response rating / Plant response rating, Morningglory: postemergence; for Morningglory plant response rating: 62 g ai/ha, scale 0 to 100
Summary of the method: as §1

foxtail, giant = assay: Test A postemergence; assay type: in vivo, Setaria faberii
Summary of the method: as §2

[5] = 250 g ai/ha, scale 0 to 100 (0 no effect, 100 complete control)
[6] = 125 g ai/ha, scale 0 to 100, 0 no effect, 100 complete control
[7] = 31 g ai/ha, visual rating, scale 0 to 100 (0 no effect, 100 complete control), 13 to 15 days
[8] = 62 g ai/ha, scale 0 to 100 (0 no effect, 100 complete control), 13 to 15 days
[9] = 250 g ai/ha, scale 0 to 100, 0 is no effect, 100 is complete control
[10] = Postemergence, 500 g ai/ha, 0 to 100 scale (0 no effect, 100 complete control)
[11] = postemergence, 125 g ai/ha, about 10 days, visual rating on 0 to 100 scale (0 no effect, 100 complete control)

Compound	Pigweed plant response rating (pigweed)	Plant response rating, Pigweed (pigweed; [5])	Plant response rating, Pigweed (pigweed; [6])	Morningglory plant response rating (0 to 100 scale) (morningglory [1])	Morningglory plant response rating (morningglory [1])	Corn plant response rating (0 to 100 scale) (corn [2])	Corn plant response rating (corn [2])	Plant response rating, Barnyardgrass (barnyardgrass)	Plant response rating, Ducksalad (ducksalad)	Crabgrass, Large plant response rating (0 to 100 scale) (crabgrass, large)	Crabgrass, Large plant response rating (crabgrass, large)	Ryegrass, Italian plant response rating (ryegrass, Italian; [7])	Ryegrass, Italian plant response rating (ryegrass, Italian; [8])	Plant response rating, Ryegrass, Italian (ryegrass, Italian; 13 to 15 days)	Ryegrass, Italian plant response rating (ryegrass, Italian; [9])	Plant response rating, Ragweed (ragweed; [5])	Plant response rating, Ragweed (ragweed; [6])	Plant response rating, Sedge, Umbrella (sedge, umbrella)	Plant response rating, Waterhemp (waterhemp)	Waterhemp plant response rating (waterhemp)	further results
CCOc1cc(C(=O)NOC(C)C)nn1Cc1ccnc(C(F)(F)F)c1 [Compound 153]	25	80	25	100	100	90	100	45	90	100	100	5	50	90	90	85	40	95	65	40	Plant response rating (scale of 0 to 100 where 0 is no effect and 100 is complete control), Galium (galium): 50; Galium plant response rating (galium): 60; Plant response rating, Galium (galium; [5]): 80; Plant response rating, Galium (galium; [6]): 70; Plant response rating (scale of 0 to 100 where 0 is no effect and 100 is complete control), Corn (corn [3]): 5; Corn plant response rating (corn [3]): 10; Plant response rating, Corn (corn [3]; [5]): 20; Plant response rating, Corn (corn [3]; [6]): 30; Velvetleaf plant response rating (0 to 100 scale) (velvetleaf): 90; Velvetleaf plant response rating (velvetleaf): 100; Plant response rating (scale of 0 to 100 where 0 is no effect and 100 is complete control), Morningglory (morningglory [4]): 65; Morningglory plant response rating (morningglory [4]): 85; Plant response rating, Morningglory (morningglory [4]; [5]): 80; Plant response rating, Morningglory (morningglory [4]; [6]): 70; Foxtail, Giant plant response rating (foxtail, giant; [10]): 100; Foxtail, Giant plant response rating (foxtail, giant; [11]): 100
CCNC(=O)c1cc(CC)n(Cc2cc(C(F)(F)F)nn2C)n1 [Compound 154]	65	95	85	100	100	0	30	45	90	100	100	5	10	50	90	35	15	95	85	65	Plant response rating (scale of 0 to 100 where 0 is no effect and 100 is complete control), Galium (galium): 50; Galium plant response rating (galium): 50; Plant response rating, Galium (galium; [5]): 85; Plant response rating, Galium (galium; [6]): 65; Plant response rating (scale of 0 to 100 where 0 is no effect and 100 is complete control), Corn (corn [3]): 5; Corn plant response rating (corn [3]): 5; Plant response rating, Corn (corn [3]; [5]): 10; Plant response rating, Corn (corn [3]; [6]): 10; Velvetleaf plant response rating (0 to 100 scale) (velvetleaf): 90; Velvetleaf plant response rating (velvetleaf): 100; Plant response rating (scale of 0 to 100 where 0 is no effect and 100 is complete control), Morningglory (morningglory [4]): 15; Morningglory plant response rating (morningglory [4]): 60; Plant response rating, Morningglory (morningglory [4]; [5]): 95; Plant response rating, Morningglory (morningglory [4]; [6]): 85; Foxtail, Giant plant response rating (foxtail, giant; [10]): 100; Foxtail, Giant plant response rating (foxtail, giant; [11]): 100
